Assays:
Format in all cases: cell-based
[1] = test system: MMP-1; assay: MMP-1 expression in UVB-irradiated human dermal fibroblasts (Western blotting); conditions: peptide 0.1˜2 μM, UVB 312 nm 12.5 mJ/cm^2, 48 hours, dose-dependent
From the text: (§1) It is known that MMP-1, the expression of which is induced by ultraviolet stimulation in human dermal fibroblasts, degrades collagen fibers to facilitate cutaneous photoaging as well as wrinkle formation. Since the expression of MMP-1 is induced by NF-κB activation, we evaluate the inhibition thereof by the treatment of the peptides of the present invention, using human dermal fibroblasts (ATCC PCS-201-012, USA).
(§2) The human dermal fibroblasts was irradiated with UVB (312 nm, 12.5 mJ/cm^2) and then treated with the peptide of SEQ ID NO: 1 in the concentrations of 0.1˜2 μM. After 48 hours, the cell extracts were subject to the Western blotting assay so as to measure the expressions of MMP-1 and procollagen type-1. […] Therefore, it can be seen that the peptide of the present invention can inhibit ultraviolet radiation-induced cutaneous photoaging.

[2] = test system: procollagen type-1; assay: Procollagen type-1 expression in UVB-irradiated human dermal fibroblasts (Western blotting); conditions: peptide 0.1˜2 μM, UVB 312 nm 12.5 mJ/cm^2, 48 hours, dose-dependent
From the text: as §1, §2

[3] = test system: TNF-α; assay: TNF-α expression in UVB-irradiated human keratinocytes HaCaT (Western blotting); conditions: UVB 312 nm 12.5 mJ/cm^2, 48 hours, peptide 0.1˜2 μM, dose-dependent
Method: (§3) We evaluated the inhibitory activities of the peptide of the present invention on expressions of the representative pro-inflammatory factors, i.e., TNF-α and IL-1α, the expressions of which are induced by ultraviolet stimulation. Specifically, the HaCaT cells (Molecular Biology Engineering Lab, Chemical & Biochemical Engineering, Dongguk University) were irradiated with UVB (312 nm, 12.5 mJ/cm^2) and then treated with the peptide of SEQ ID NO: 1 in the concentrations of 0.1˜2 μM. At this time, the control group was treated with dexamethasone (Dex) having the immunosuppressive function, at the irradiation of UVB. After 48 hours, the cell extracts were subject to the Western blotting assay so as to measure the expressions of TNF-α and IL-1α.

[4] = test system: IL-1α; assay: IL-1α expression in UVB-irradiated human keratinocytes HaCaT (Western blotting); conditions: UVB 312 nm 12.5 mJ/cm^2, 48 hours, peptide 0.1˜2 μM, dose-dependent
Method: as §3

[5] = test system: PGE2; assay: PGE2 formation in UVB-irradiated human keratinocytes HaCaT (enzyme immunoassay); conditions: peptide 0.1˜2 μM, dose-dependent
Method: as §3
(§4) And also, the cell extracts were subject to the enzyme immunoassay so as to evaluate the inhibitory effects on formation of PGE2 (one of pro-inflammatory factors). For this assay, we also used the group treated with dexamethasone at the irradiation of UVB as a control group. In addition, the expression of COX-2 (which is a PGE2 formation-mediating enzyme) was measured through the Western blotting assay; and the results thereof are shown in FIG. 8.

[6] = test system: COX-2; assay: COX-2 expression in UVB-irradiated human keratinocytes HaCaT (Western blotting); conditions: peptide 0.1˜2 μM, dose-dependent
Method: as §3, §4

PGE2 formation increased by ultraviolet stimulation [5]: reduced
Substance: Arg-Phe-Arg (RFR; Peptide fragment) [SEQ ID NO: 1, peptide fragment derived from the NF-κB p65 subunit]
expression of MMP-1 increased by ultraviolet stimulation [1]: reduced | expression of procollagen type-1 [2]: increased | expression of TNF-α [3]: reduced | expression of IL-1α [4]: reduced | expression of COX-2 [6]: reduced

Source: patent US9464112B2, “Peptides having NF-κB inhibitory activity, or composition comprising same” (KNU-INDUSTRY COOPERATION FOUNDATION, priority 2012, dated 2016)
